Measurements: article PMC6127270 (Frontiers in Pharmacology, 2018)
Where two headings read alike, the source gives them in different places.

How the values were obtained:
CD-1 mice [1] = details: s.c., hot-plate, values marked c (footnote not given), ref Lattanzi et al., 2005; cited from earlier work
[2] = Charcoal meal test (gastrointestinal transit); details: male, CD-1, mouse, in vivo, sc
CD-1 mice [3] = assay: Charcoal meal test (gastrointestinal transit); details: mice; for Inhibition of gastrointestinal transit at highest tested dose: highest doses morphine 8000, 14-OMO 90, POMO […]
[4] = system: guinea-pig ileum (GPI) myenteric plexus-longitudinal muscle preparation; design: method as in Lattanzi et al., 2005; details: values marked c (footnote not given); ref Lattanzi et al., 2005; read-out: Bioassay IC50 GPI; cited from earlier work
human KOR = molecular target: T1, human KOR (Homo sapiens, UniProt P41145); assay: biochemical; assay type: biochemical
T1 construct: host or cells: CHO

human MOR = molecular target: T2, human MOR (Homo sapiens, UniProt P35372); assay: [35S]GTPγS binding, CHO-hMOR membranes; assay type: biochemical; details: for [35S]GTPγS Binding MOR % stim.: relative to DAMGO
T2 construct: host or cells: CHO

[5] = system: mouse vas deferens (MVD) preparation; design: method as in Lattanzi et al., 2005; details: values marked c (footnote not given); ref Lattanzi et al., 2005; read-out: Bioassay IC50 MVD; cited from earlier work
human DOR = molecular target: T3, human DOR (Homo sapiens, UniProt P41143); assay: [35S]GTPγS binding, CHO-hDOR membranes; assay type: biochemical; details: for [35S]GTPγS Binding DOR % stim.: relative to DPDPE
T3 construct: host or cells: CHO

[6] = system: guinea-pig ileum (GPI) myenteric plexus-longitudinal muscle preparation; details: for IC50: read-out: Bioassay IC50 GPI, inhibition of electrically evoked twitch
[7] = system: mouse vas deferens (MVD) preparation; details: for IC50: read-out: Bioassay IC50 MVD, inhibition of electrically evoked twitch
DOR = molecular target: T4, DOR (Rattus norvegicus, UniProt P33533); assay: Competition binding, [3H][Ile5,6]deltorphin II, rat brain membranes
T4 construct: Membranes were prepared from Sprague–Dawley rat brains or guinea-pig brains; from tissue; host or cells: Sprague-Dawley rat brain

KOR = molecular target: T5, KOR (Cavia porcellus, UniProt P41144); assay: Competition binding, [3H]U69,593, guinea-pig brain membranes
T5 construct: Membranes were prepared from Sprague–Dawley rat brains or guinea-pig brains; from tissue; host or cells: guinea-pig brain

CD-1 mice [8] = assay: Hot-plate assay (acute thermal nociception); assay type: in vivo, mouse
[9] = system: guinea-pig ileum (GPI) myenteric plexus-longitudinal muscle preparation; assay: tissue or blood; details: Cavia porcellus, read-out: Bioassay IC50 GPI
[10] = system: mouse vas deferens (MVD) preparation; assay: tissue or blood; details: read-out: Bioassay IC50 MVD
MOR = molecular target: T6, MOR (Rattus norvegicus, UniProt P33535); assay: Competition binding, [3H]DAMGO, rat brain membranes
T6 construct: Membranes were prepared from Sprague–Dawley rat brains or guinea-pig brains; from tissue; host or cells: Sprague-Dawley rat brain

CO[C@@]12CCC(=O)[C@@H]3Oc4c(O)ccc5c4[C@@]31CCN(C)[C@@H]2C5 [14-OMO, 14-O-methyloxymorphone, reference compound]
Antinociceptive activity AD50 (95% CI) (CD-1 mice [1]): 53 (48–58)^c μg/kg
ED50 at 30 min [2]: 0.037 µmol/kg
Inhibition of gastrointestinal transit at highest tested dose (CD-1 mice [3]; charcoal test, s.c.): 90%
IC50 [4]: 2 ± 0.3 nM
EC50 (human KOR): 144 ± 32 nM
[35S]GTPγS Binding KOR % stim. (human KOR): 65 ± 7%
EC50 (human MOR): 1.62 ± 0.48 nM
[35S]GTPγS Binding MOR % stim. (human MOR): 97 ± 6%
IC50 [5]: 30.5 ± 5.5 nM
EC50 (human DOR): 43.8 ± 11.7 nM
[35S]GTPγS Binding DOR % stim. (human DOR): 106 ± 1%

C[C@@H](NC(=O)[C@@H](N)Cc1ccc(O)cc1)C(=O)NCC(=O)N(C)[C@@H](Cc1ccccc1)C(=O)NCCO [DAMGO, [D-Ala^2,N-Me-Phe^4,Gly-ol^5]enkephalin, reference compound]
[35S]GTPγS Binding MOR % stim. (human MOR): 100%

CC(C)[C@H](NC(=O)[C@H](CC(=O)O)NC(=O)[C@H](Cc1ccccc1)NC(=O)[C@@H](C)NC(=O)[C@@H](N)Cc1ccc(O)cc1)C(=O)N[C@H](C(=O)NCC(N)=O)C(C)C [Deltorphin I, deltorphin I, reference compound]
IC50 [6]: 1240 ± 132 nM
IC50 [7]: 0.19 ± 0.03 nM

C[C@@H](NC(=O)[C@@H](N)Cc1ccc(O)cc1)C(=O)N[C@@H](Cc1ccccc1)C(=O)NCC(=O)N[C@@H](Cc1ccc(O)cc1)C(=O)N1CCC[C@H]1C(=O)N[C@@H](CO)C(N)=O [Dermorphin, reference compound]
IC50 [6]: 1.3 ± 0.27 nM
IC50 [7]: 18 ± 0.31 nM

CN1CC[C@]23c4c5ccc(O)c4O[C@H]2[C@@H](O)C=C[C@H]3[C@H]1C5 [Morphine, Morphine hydrocloride, reference compound]
Antinociceptive activity AD50 (95% CI) (CD-1 mice [1]): 6690 (4468–9348)^c μg/kg
ED50 at 30 min [2]: 3.8 µmol/kg
Inhibition of gastrointestinal transit at highest tested dose (CD-1 mice [3]; charcoal test, s.c.): completely abolishing transit

CN1CC[C@]23c4c5ccc(O)c4O[C@H]2C(=O)CC[C@@]3(OCCCc2ccccc2)[C@H]1C5 [POMO, 14-O-phenylpropyloxymorphone]
Ki (DOR): 0.13 ± 0.02 nM
Ki (KOR): 0.3 ± 0.01 nM
Fold more potent than morphine as agonist in GPI [6]: over 250 fold
Fold more potent than 14-OMO as agonist in MVD [7]: 1000 fold
Fold more potent than morphine as agonist in MVD [7]: > 50,000 fold
ED50 at 30 min [2]: 0.0017 µmol/kg
Inhibition of gastrointestinal transit compared with 14-OMO and morphine (CD-1 mice [3]; charcoal test): fourfold less inhibition
Inhibition of gastrointestinal transit at highest tested dose (CD-1 mice [3]; charcoal test, s.c.): 50%
Ratio ED50(constipation) vs. AD50(antinociception) (CD-1 mice [3]; s.c.): 2.43
Antagonism of antinociception by naloxone (CD-1 mice [8]; POMO 2 nmol/kg s.c., 20 min, naloxone 1 mg/kg s.c., -10 min): significantly antagonized
Antagonism of antinociception by naltrindole (CD-1 mice [8]; POMO 2 nmol/kg s.c., 20 min, naltrindole 3 mg/kg s.c., -10 min): did not antagonize
Antagonism of antinociception by nor-BNI (CD-1 mice [8]; POMO 2 nmol/kg s.c., 20 min, nor-BNI 20 mg/kg s.c., -24 h): did not antagonize
Fold increased antinociceptive potency than 14-OMO (CD-1 mice [8]; hot-plate, mice, s.c.): over 70 fold
Fold increased antinociceptive potency than morphine (CD-1 mice [8]; hot-plate, mice, s.c.): > 9000 fold
Time of peak antinociceptive response (CD-1 mice [8]; hot-plate, mice, s.c.): 20 min
Fold increase in antinociceptive potency than oxymorphone (CD-1 mice [8]; hot-plate, mice, s.c., oxymorphone value from Dumitrascuta et al., 2017): > 1400 fold
AD50 hot-plate test (CD-1 mice [8]; mice, s.c.): 0.7 nmol/kg
Antinociceptive activity AD50 (95% CI) (CD-1 mice [8]; mice, s.c., hot-plate, at peak of action): 0.70 (0.63–0.77) μg/kg
IC50 [9]: 1.2 ± 0.21 nM
IC50 [10]: 0.03 ± 0.0013 nM
Ki (MOR): 0.073 ± 0.007 nM
Selectivity DOR/MOR (MOR; ratio of Ki values): 1.8
Selectivity KOR/MOR (MOR; ratio of Ki values): 4.1
Agonist efficacy at KOR (human KOR): partial agonism
EC50 (human KOR): 0.38 ± 0.13 nM
Fold increase in potency (EC50) than 14-OMO at KOR (human KOR): 411 fold
[35S]GTPγS Binding KOR % stim. (human KOR): 39 ± 5%
EC50 (human MOR): 0.082 ± 0.017 nM
Agonist efficacy at MOR (human MOR; [35S]GTPγS binding): full efficacy
Fold increase in potency (EC50) than 14-OMO at MOR (human MOR; [35S]GTPγS binding): 20 fold
[35S]GTPγS Binding MOR % stim. (human MOR): 100 ± 8%
EC50 (human DOR): 0.28 ± 0.14 nM
Agonist efficacy at DOR (human DOR; [35S]GTPγS binding): full efficacy
Fold increase in potency (EC50) than 14-OMO at DOR (human DOR; [35S]GTPγS binding): 151 fold
[35S]GTPγS Binding DOR % stim. (human DOR): 91 ± 8%
